Measurements reported in patent publication US11865129B2, “Application of anemoside B4 in preparation of a drug for treatment or prevention of psoriasis” (GUANGXI XINHAI PHARMACEUTICAL TECHNOLOGY CO., LTD., priority 2021, dated 2024).

Columns and labels:
Assay type in all cases: in vivo, BALB/c male mice
spleen = assay: Spleen coefficient, psoriasis model mice; conditions: 12 days, compared with model control group
Protocol: (§1) A shaving area on the back of the mice in each group is 2.5 cm×3 cm, and the vellus is removed with mild depilatory cream. The mice of each group except the blank control group are modeled by administrating 62.5 mg 5% imiquimod cream on the shaving area until the skin is thickened and has erythema and silver scales for modeling completely. During the model establishment, 5% imiquimod cream is administrated once a day, and continuously administrated for 14 days. On the third day, the model establishment is continued and drugs are administered at the same time, wherein the mice in the AC intragastric administration group (8 mg/kg), the anemoside B4 intragastric (i.g.) administration group (5 mg/kg), the anemoside B4 intragastric administration group (10 mg/kg), and the anemoside B4 intragastric administration group (20 mg/kg) are administrated once a day, and continuously administrated for 12 days. […] The mice in the blank control group and the model control group are applied 62.5 mg Vaseline to the skin lesions once a day, and continuously applied for 12 days. The weight of the mice is recorded for counting the weight change of the mice. After blood collection of the mice in each group of the first animal group, the mice are killed by dislocation of cervical vertebra, quickly separated the spleen and weighed to obtain the wet weight of the spleen, recording and calculating the spleen coefficient, wherein the spleen coefficient (%)=(spleen wet weight/body weight)×100%.

[1] = Weights of mice, 5% imiquimod-induced psoriasis model (first animal group); conditions: for weights of the mice / weight loss of the mice caused by psoriasis: 12 days; for weights of the mice: compared with blank control group; for weight loss of the mice caused by psoriasis: compared with model control group
Protocol: as §1, with “mice.” for “mice. After blood collection of the mice in each group of the first animal group, the mice are killed by dislocation of cervical vertebra, quickly separated the spleen and weighed to obtain the wet weight of the spleen, recording and calculating the spleen coefficient, wherein the spleen coefficient (%)=(spleen wet weight/body weight)×100%.”

IL-1β = IL-1β level in skin tissue, psoriasis model mice; conditions: 12 days, compared with model control group
Protocol: (§2) A shaving area on the back of the mice in each group is 2.5 cm×3 cm, and the vellus is removed with mild depilatory cream. The mice of each group except the blank control group are modeled by administrating 62.5 mg 5% imiquimod cream on the shaving area until the skin is thickened and has erythema and silver scales for modeling completely. During the model establishment, 5% imiquimod cream is administrated once a day, and continuously administrated for 14 days. On the third day, the model establishment is continued and drugs are administered at the same time, wherein the mice in the AC intragastric administration group (8 mg/kg), the anemoside B4 intragastric (i.g.) administration group (5 mg/kg), the anemoside B4 intragastric administration group (10 mg/kg), and the anemoside B4 intragastric administration group (20 mg/kg) are administrated once a day, and continuously administrated for 12 days. […] The mice in the blank control group and the model control group are applied 62.5 mg Vaseline to the skin lesions once a day, and continuously applied for 12 days. The weight of the mice is recorded for counting the weight change of the mice. 100 mg skin tissue of the mice in each group of the first animal group are precisely weighed, added 0.9 mL ice normal saline, homogenized with the tissue grinder, and centrifuged at 4° C. and 3000 rpm for 10 min. The supernatant is collected, and IL-12, IL-17, IL-6 and IL-1β level in the skin tissue are measured by kits according to the procedures of specification.

psoriasis skin lesions = assay: Histopathological observation of skin (HE staining), psoriasis model mice; conditions: 12 days
Protocol: as §1, with “vertebra,” for “vertebra, quickly”, “skin in the skin lesions,” for “spleen”, “removed subcutaneous fat. Taking a part, fixing it with 4% paraformaldehyde, embedding, obtaining section, dying with hematoxylin and eosin (HE), and observing histopathological changes” for “weighed to obtain the wet weight”, “skin under a light microscope.” for “spleen, recording and calculating the spleen coefficient, wherein the spleen coefficient (%)=(spleen wet weight/body weight)×100%.”

IL-6 = IL-6 level in skin tissue, psoriasis model mice; conditions: 12 days, compared with model control group
Protocol: as §2

IL-12 = IL-12 level in skin tissue, psoriasis model mice; conditions: 12 days, compared with model control group
Protocol: as §2

[2] = system: 5% imiquimod-induced psoriatic lesions; assay: Psoriatic lesions and PASI, 5% imiquimod-induced psoriasis model in mice (first animal group); conditions: for skin lesions of the mice: 12 days
Protocol: as §1, with “mice.” for “mice. After blood collection of the mice in each group of the first animal group, the mice are killed by dislocation of cervical vertebra, quickly separated the spleen and weighed to obtain the wet weight of the spleen, recording and calculating the spleen coefficient, wherein the spleen coefficient (%)=(spleen wet weight/body weight)×100%.”

[3] = intragastric 5 mg/kg once a day
[4] = intragastric 10 mg/kg once a day
[5] = intragastric 20 mg/kg once a day
[6] = anemoside B4 groups, doses not specified

C=C(C)[C@@H]1CC[C@]2(C(=O)O[C@@H]3O[C@H](CO[C@@H]4O[C@H](CO)[C@@H](O[C@@H]5O[C@@H](C)[C@H](O)[C@@H](O)[C@H]5O)[C@H](O)[C@H]4O)[C@@H](O)[C@H](O)[C@H]3O)CC[C@]3(C)[C@H](CC[C@@H]4[C@@]5(C)CC[C@H](O[C@@H]6OC[C@H](O)[C@H](O)[C@H]6O[C@@H]6O[C@@H](C)[C@H](O)[C@@H](O)[C@H]6O)[C@@](C)(CO)[C@@H]5CC[C@]43C)[C@H]12 [anemoside B4]
better: reversal of weight loss caused by imiquimod, compared with the acitretin capsules (AC) intragastric administration group [1, 6] | improvement of the skin lesions, compared with the acitretin capsules (AC) intragastric administration group [2, 6]
significantly relieved: enlargement of the spleen (spleen; [3]) | enlargement of the spleen (spleen; [4]) | enlargement of the spleen (spleen; [5])
significantly decreased: spleen coefficient (spleen; [3]) | spleen coefficient (spleen; [4]) | spleen coefficient (spleen; [5]) | weights of the mice [1, 3] | weights of the mice [1, 4] | weights of the mice [1, 5]
can be improved: weight loss of the mice caused by psoriasis [1, 3] | weight loss of the mice caused by psoriasis [1, 4] | weight loss of the mice caused by psoriasis [1, 5]
significantly reduced: level of IL-1β in the skin tissue (IL-1β; [3]) | level of IL-1β in the skin tissue (IL-1β; [4]) | level of IL-1β in the skin tissue (IL-1β; [5]) | level of IL-6 in the skin tissue (IL-6; [3]) | level of IL-6 in the skin tissue (IL-6; [4]) | level of IL-6 in the skin tissue (IL-6; [5]) | level of IL-12 in the skin tissue (IL-12; [3]) | level of IL-12 in the skin tissue (IL-12; [4]) | level of IL-12 in the skin tissue (IL-12; [5])
significantly improved: psoriasis skin lesions, HE staining of skin tissue (psoriasis skin lesions; [3]) | psoriasis skin lesions, HE staining of skin tissue (psoriasis skin lesions; [4]) | psoriasis skin lesions, HE staining of skin tissue (psoriasis skin lesions; [5]) | skin lesions of the mice [2, 3] | skin lesions of the mice [2, 4] | skin lesions of the mice [2, 5]
